Data taken from US8318664B2, “Unacylated ghrelin fragments as therapeutic agent in the treatment of obesity” (Alize Pharma SAS, priority 2007, dated 2012).
“Also recorded” adds a separate entry of the source. Non-standard residues stand in square brackets, D forms with d. No end group written: not given here.

Tests used:
Type in all cases: cell-based
[1] = tested on: hamster HIT-T15 β-cells; experiment: MTT cell survival assay in HIT-T15 β-cells
Description: MTT experiments were also performed in hamster HIT-T15 β-cells, to test the survival effect of UAG (1-28) or its fragments UAG (1-14), UAG (1-18), UAG (1-5) and UAG (17-28) in serum deprived medium, either alone or with IFN-γ/TNF-α/IL-1β. As for the experiments performed on INS-1E β-cells, the peptides were tested at increasing concentrations, ranging from 0.1 nM to 100 nM.
The survival effect of UAG (6-13), UAG (8-13), UAG (8-12), UAG (8-11), UAG (9-12) and UAG (9-11) was assessed in cytokine-treated HIT-T15 β-cells.
The protective effects of peptides UAG (8-13) and UAG (8-12) were found similar to those of UAG (1-14) and UAG (1-18). A peptide made of the inverse sequence of UAG (1-14) and named UAG (14-1), was used as negative control for these experiments (FIG. 5A). […] These effects were however lower than those of UAG (6-13) (FIG. 5B).
UAG fragments with alanine (Ala) substitutions at different amino acid positions (6 to 13) were tested with regards to their survival effects in HIT-T15 hamster β-cells. The cells were cultured in serum deprived medium, either alone or with IFN-γ/TNF-α/IL-1β. The peptides were tested at the concentrations of 1 nM to 100 nM. […] Under treatment with cytokines, where cell survival was reduced by ≈18% with respect to serum starved conditions, all Ala substitutions, except those at positions 10 and 11, completely reversed cell death and brought the survival rate to levels that were even higher than those under serum-free conditions, at both 1 nM and 100 nM concentrations. These effects were similar to those elicited by the original peptide UAG (6-13) (FIG. 11B).
Particularly, the best effect was exerted by Gly 6-UAG (6-13), whereas the lowest was seen using AcSer 6-UAG (6-13), AcSer 6-(D)Pro 7-UAG (6-13) (FIG. 12B).
(§1) Hamster HIT-T15 insulin-secreting β-cells were obtained and cultured as described (Refs. 14, 4). INS-1E rat β-cells were kindly provided by Prof. Claes B. Wollheim (University Medical Center, Geneva, Switzerland) and cultured as described (Refs. 14, 4). Cell culture reagents were from Invitrogen (Milano, Italy). Cytokines were from Biosource (Invitrogen, Italy).
(§2) Cell survival was assessed by 3-[4,5-dimethylthiazol-2-yl]-2,5diphenyltetrazolium bromide (MTT) as described previously (Ref. 4). Cells were seeded on 96-well plates at a density of 5×10^3 cells/well. After treatments, cells were incubated with 1 mg/ml MTT for ≈1 h. The medium was aspirated, and the formazan product solubilized with 100 μl DMSO. Viability was assessed by spectrophotometry at 570 nm absorbance using a 96-well plate reader.

[2] = tested on: INS-1E rat β-cells; experiment: MTT cell survival assay in INS-1E β-cells; conditions: 0.1 nM to 100 nM
Description: The peptides were tested at increasing concentrations, ranging from 0.1 nM to 100 nM.
as §1, §2

[3] = tested on: human pancreatic islets; experiment: MTT cell survival assay in human pancreatic islets; conditions: human islet cells, 1 nM to 100 nM
Description: The survival effect of UAG (1-14), UAG (1-18), UAG (1-5) and UAG (17-28), with respect to that of full length UAG (1-28), was assessed in human pancreatic islets by MTT. The peptides were tested in islet cells cultured in serum deprived medium, either alone or with IFN-γ/TNF-α/IL-1β (5 ng/ml each).
Human islets were obtained from pancreases of multiorgan donors as described (Ref. 4). Islet preparations with purity >70%, not suitable for transplantation, were provided by European Consortium for Islet Transplantation (ECIT) “Islets for Research Distribution Program,” Transplant Unit, Scientific Institute San Raffaele, Vita-Salute University, Milan. Islets (10,000) were cultured in CMRL (Invitrogen) with 10% FBS.
as §2

[4] = serum deprived medium with IFN-γ/TNF-α/IL-1β
[5] = serum deprived medium with IFN-γ/TNF-α/IL-1β (5 ng/ml each)

Substance | cell survival (MTT) [1, 4] | cell survival (MTT) ([2]; serum deprived medium alone) | cell survival (MTT) [2, 4] | cell survival (MTT) ([1]; serum deprived medium alone) | cell survival (MTT) ([3]; serum deprived medium alone) | cell survival (MTT) [3, 5]
Ac-Ser-Pro-Glu-His-Gln-Arg-Val-Gln-NH2 (Ac-SPEHQRVQ-NH2; listed as Homo sapiens) [AcSer 6-UAG (6-13)] | lowest |  |  |  |  | 
Ac-Ser-pro-Glu-His-Gln-Arg-Val-Gln-NH2 (Ac-S[dP]EHQRVQ-NH2; listed as Homo sapiens) [AcSer 6-(D)Pro 7-UAG (6-13)] | lowest |  |  |  |  | 
ESKKPPAKLQPR [UAG (17-28)] | no significant effect; also recorded: very little effect | reduced, although significant, survival action; also recorded: only a trivial effect | reduced effect; also recorded: only a trivial effect | no significant effect; also recorded: very little effect | significantly increased survival of islet cells | had no effect
Glu-His-Gln-Arg (EHQR; listed as Homo sapiens) [UAG (8-11)] | significant survival effect only at 100 nM |  |  |  |  | 
Gly-Pro-Glu-His-Gln-Arg-Val-Gln-NH2 (GPEHQRVQ-NH2; listed as Homo sapiens) [Gly 6-UAG (6-13)] | best effect |  |  |  |  | 
Gly-Ser-Ser-Phe-Leu (GSSFL; listed as Homo sapiens) [UAG (1-5)] | slightly increased cell survival; also recorded: very little effect | reduced, although significant, survival action; also recorded: only a trivial effect | reduced effect; also recorded: only a trivial effect | very little effect | little, although significant survival action at 10 nM | no cell protection
His-Gln-Arg [UAG (9-11)] | no significant effect at both concentrations tested |  |  |  |  | 
His-Gln-Arg-Val (HQRV; listed as Homo sapiens) [UAG (9-12)] | significantly increased cell survival at both the concentrations tested |  |  |  |  | 
